Experimental data taken from patent US6441039B1, “Gastro-intestinal adverse effect-free composition comprising an L-carnitine replacement” (priority 1998, dated 2002).
“And” between values parts separate entries of the source, which are not always exact repeats. Identical values can stand only once. Counter-ions that a name gives are not always drawn. Marks after values point to notes of the source that are not given here.

What was measured:
[1] = tested on: gastrointestinal motility; experiment: charcoal propulsion test, intestinal motility after single oral dose
Method: A study on the effect on intestinal motility of L-carnitine acid fumarate vs. L-carnitine L-tartrate administered by the oral route to the rat at a single dose, using the charcoal propulsion test, is hereinbelow reported.
35-day old, Hsd Sprague Dawley (SD) male rats (Harlan), weighing 125-150 g were used in the study. The rats were supplied by Harlan Nossan S.r.l., 8, Via E. Fermi, 20050 Correzzana (MI)—Italy.
Eight male rats/group were treated orally with L-Carnitine acid Fumarate, at the doses of 430-855 and 1710 mg/10 ml/kg, and with L-Carnitine L-Tartrate at the doses of 365-730 and 1455 mg/10 ml/kg.
The doses of the two compounds were chosen as equimolar to 250-500 and 1000 mg/kg of L-Carnitine Inner Salt.
Two additional groups, each consisting of eight males, were set up and orally treated respectively with the vehicle (Control group—0.5% Carboxymethylcellulose (MC) in deionized water: 10 ml/kg) or with Atropine (30 mg/10 ml/kg) as reference standard.
The animals were subdivided at random (in number of 4/cage) into the different dosage groups according to the following scheme:
Forty-five minutes after the administration of all the above reported substances, each rat received orally 1.5 ml of a 10% charcoal suspension.
Exactly twenty minutes after dosing with charcoal suspension the rats were sacrificed; then the distance the charcoal meal had travelled throughout the intestine (from the pyloric sphincter towards the caecum) was measured and expressed as a percentage of the total gut length.

[2] = oral intake, dose-related; cited from earlier work
[3] = individual rats, oral 30 mg/10 ml/kg

SMILES: CN1[C@@H]2CC[C@H]1C[C@@H](OC(=O)C(CO)c1ccccc1)C2 (stereo partly drawn) [Atropine]
- Distance travelled as % of total intestine length (individual rat) [1, 3]: 48.74% and 39.68% and 37.50% and 46.56% and 44.07% and 44.96% and 42.06% and 41.60%
- Distance travelled by charcoal (individual rat) [1, 3]: 58 cm (2×) and 50 cm and 45 cm and 61 cm and 52 cm (2×) and 53 cm
- % change from vehicle ([1]; rat, oral 30 mg/10 ml/kg): −30.87%
- change in gastrointestinal motility vs control group ([1]; rat, oral 30 mg/kg): statistically highly significant (p<0.001) decrease in gastrointestinal motility
- Distance travelled as % of total intestine length (mean) ([1]; rat, oral single dose 30 mg/10 ml/kg, n=8, p<0.001 vs control): 43.15 ▴ %

SMILES: C[N+](C)(C)C[C@H](O)CC(=O)[O-] [L-carnitine, L-carnitine inner salt]
- gastrointestinal adverse effect in users [2]: episodes of diarrhoea have been frequently reported
